Consider 34 compounds from patent US20070179161A1, “Pyrazolopyrimidine compounds and their use in medicine” (VERNALIS (CAMBRIDGE) LIMITED., priority 2003, published 2007).

Holding throughout (format): biochemical
In assay [1] the target is CDK-2 enzyme, complexed with cyclin A (Homo sapiens, UniProt P24941). Kind of assay: CDK2 enzyme inhibition assay (33P phosphorylation of peptide […], filter plate). The following applies: CDK-2/cyclin A, 0.1 mM ATP, 40 min at 30° C. The gist of the method: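 Cyclin A–complexed CDK2 (0.4 U/ml) incubated with inhibitor, 0.03 mM peptide, 0.1 mM ATP plus 33P-γ-ATP in HEPES pH 7.5, 7.5 mM Mg acetate, 0.1 mg/ml BSA, 40 min at 30 °C. Stopped with phosphoric acid; phosphorylated peptide captured on filter plates and counted by scintillation.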

Assay [2] concerns the target T1, PDK1 enzyme (Homo sapiens, UniProt O15530).
T1 sequence (O15530 1-556): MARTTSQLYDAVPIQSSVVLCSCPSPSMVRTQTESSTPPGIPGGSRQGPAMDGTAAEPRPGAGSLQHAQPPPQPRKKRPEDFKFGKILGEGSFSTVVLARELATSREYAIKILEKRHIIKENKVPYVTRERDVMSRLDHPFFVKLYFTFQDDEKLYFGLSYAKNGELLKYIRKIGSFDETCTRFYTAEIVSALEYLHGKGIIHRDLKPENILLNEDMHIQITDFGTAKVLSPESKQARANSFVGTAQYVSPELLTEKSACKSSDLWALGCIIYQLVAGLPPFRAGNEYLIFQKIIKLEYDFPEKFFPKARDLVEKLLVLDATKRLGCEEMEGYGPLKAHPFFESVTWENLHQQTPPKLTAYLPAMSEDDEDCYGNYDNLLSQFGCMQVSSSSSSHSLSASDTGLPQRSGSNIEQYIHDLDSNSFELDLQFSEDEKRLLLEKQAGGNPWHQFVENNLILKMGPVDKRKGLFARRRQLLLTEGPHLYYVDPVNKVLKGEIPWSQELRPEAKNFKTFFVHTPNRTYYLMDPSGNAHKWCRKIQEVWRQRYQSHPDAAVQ
Briefly: PDK1 kinase inhibition assay (33P phosphorylation of synthetic peptide, filter plate). The following applies: 0.01 mM ATP, 60 min at 30° C.; read-out: PDK1 IC50. The gist of the method: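 PDK1 and inhibitor incubated 60 min at 30° C with 0.01 mM ATP plus 33P-γ-ATP, 0.075 mM peptide, 7.5 mM Mg acetate, 0.1 mg/ml BSA in 0.05 M Tris.HCl pH 7.5. Stopped with phosphoric acid; phosphorylated peptide captured on filter plate and counted by scintillation.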

Assay [3] concerns the target T2, GST-Chk1 enzyme (Homo sapiens, UniProt O14757).
T2 sequence (O14757 1-476): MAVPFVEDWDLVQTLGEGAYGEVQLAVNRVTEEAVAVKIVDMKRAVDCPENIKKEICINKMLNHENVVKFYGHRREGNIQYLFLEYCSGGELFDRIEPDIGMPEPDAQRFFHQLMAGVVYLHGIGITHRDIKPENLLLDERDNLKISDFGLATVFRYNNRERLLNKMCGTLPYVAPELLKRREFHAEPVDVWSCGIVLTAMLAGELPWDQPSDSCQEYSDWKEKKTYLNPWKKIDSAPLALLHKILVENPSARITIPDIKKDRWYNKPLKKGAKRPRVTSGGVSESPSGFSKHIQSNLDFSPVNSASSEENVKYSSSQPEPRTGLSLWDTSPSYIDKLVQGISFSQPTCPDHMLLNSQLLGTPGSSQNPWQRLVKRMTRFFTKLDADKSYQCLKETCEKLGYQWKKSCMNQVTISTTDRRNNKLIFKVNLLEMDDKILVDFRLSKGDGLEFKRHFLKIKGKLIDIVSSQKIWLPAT
Kind of assay: Chk1 kinase inhibition assay (33P phosphorylation of Chktide, filter plate). The following applies: 0.01 mM ATP, 11 nM GST-Chk1, 40 minutes at 30° C.; read-out: Chk1 IC50. The gist of the method:
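Inhibitor and enzyme reacted 40 min at 30 °C, then stopped with 50 mM phosphoric acid. Phosphorylated peptide captured on filter plates and quantified by scintillation counting.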

Where only a bound is given, the exact number is not on record here.

In general, IC50 refers to the concentration at which inhibition is half-maximal. Turning to `CN(C)S(=O)(=O)c1cccc(Nc2cc(Cl)nc3c(Br)cnn23)c1` [Example 93], the IC50 is 0.572 µM in assay [1], over 200 µM in assay [2] and over 200 µM in assay [3].
Turning to `CN(C)S(=O)(=O)c1cccc(Nc2cc(N[C@H]3CC[C@H](N)CC3)nc3c(Br)cnn23)c1` [Example 94], the half-inhibitory concentration (IC50) in assay [1] is 0.07 µM; in assay [2], over 200 µM; in assay [3], 27 µM.
The matching figures for `CC(C)c1cnn2c(Nc3ccc(S(=O)(=O)N(C)C)cc3)cc(N3CCC(CN)CC3)nc12` [Example 95]: 1.86 µM, 64.2 µM and 24.9 µM.
Take `COCCN(C)S(=O)(=O)c1ccc(Nc2cc(Cl)nc3c(C(C)C)cnn23)cc1` [Example 96]: the IC50 is 0.124 µM in assay [1], over 200 µM in assay [2] and over 200 µM in assay [3].
`CC(C)c1cnn2c(Nc3ccc(S(=O)(=O)N(C)C)cc3)cc(N3CCC[C@H]3CN)nc12` [Example 97]: the IC50 in assay [1] was 7.81 µM; in assay [2] it was over 200 µM; in assay [3] it was 4.75 µM.
The matching figures for `CC(C)c1cnn2c(Nc3ccc(S(=O)(=O)N(C)C)cc3)cc(NCCN)nc12` [Example 98]: 7.5 µM, over 200 µM and 18.7 µM.
The like results for `CC(C)c1cnn2c(Nc3ccc(S(=O)(=O)N(C)CCN(C)C)cc3)cc(N[C@H]3CC[C@H](N)CC3)nc12` [Example 99] were, in that order, 0.128 µM, 6.91 µM and 0.953 µM.
Take `CCN(CC)[C@H]1CC[C@H](Nc2cc(Nc3ccc(S(=O)(=O)N(C)C)cc3)n3ncc(C(C)C)c3n2)CC1` [Example 100]: the IC50 in assay [1] worked out at 0.092 µM; in assay [2] it was 30.3 µM; in assay [3], 29.3 µM.
The like results for `CC(C)c1cnn2c(Nc3ccc(S(=O)(=O)N(C)C)cc3)cc(N[C@H]3CC[C@H](O)CC3)nc12` [Example 101] were, in that order, 0.024 µM, 3.81 µM and over 200 µM.
The matching figures for `CC(C)c1cnn2c(Nc3ccc(S(=O)(=O)N(C)C)cc3)cc(NCCCN3CCOCC3)nc12` [Example 102]: 0.965 µM, over 200 µM and over 200 µM.
Turning to `CC(C)c1cnn2c(Nc3ccc(S(=O)(=O)N(C)C)cc3)cc(N3CCCC3CO)nc12` (stereo not drawn) [Example 104], the IC50 is 0.177 µM in assay [1], over 200 µM in assay [2] and over 200 µM in assay [3].
With `CC(C)c1cnn2c(Nc3ccc(S(=O)(=O)N(C)C)cc3)cc(N3CCC(CN(C)C)CC3)nc12` [Example 105], the values for the IC50 in assay [1], in assay [2] and in assay [3] were 5.98 µM, over 200 µM and over 200 µM, respectively.
On to `CC(C)c1cnn2c(Nc3ccc(S(=O)(=O)N(C)C)cc3)cc(NCC(C)(C)CN(C)C)nc12` [Example 106], for which the IC50 in assay [1] was found to be 3.34 µM; in assay [2], 14.4 µM; in assay [3], 18.2 µM.
The like results for `CC(C)c1cnn2c(Nc3ccc(S(C)(=O)=O)nc3)cc(N[C@H]3CC[C@H](N)CC3)nc12` [Example 107] were, in that order, 0.101 µM, 96.5 µM and 19.6 µM.
The matching figures for `CCNc1cc(Nc2ccc(S(=O)(=O)N(C)C)cc2)n2ncc(C(C)C)c2n1` [Example 108]: 3.14 µM, over 200 µM and over 200 µM.
For the compound `CC(C)c1cnn2c(Nc3ccc(S(=O)(=O)N(C)C)cc3)cc(N3CCN(CC4CCN(C)CC4)CC3)nc12` [Example 109], the 50% inhibitory concentration (IC50) in assay [1] is 10.3 µM; in assay [2] it was over 200 µM; in assay [3] it was 15.2 µM.
Regarding `CCOC(=O)c1cc(Nc2ccc(S(=O)(=O)N(C)C)cc2)n2ncc(C(C)C)c2n1` [Example 112], the IC50 in assay [1] is 0.274 µM; in assay [2], over 200 µM; in assay [3] it was over 200 µM.
Turning to `CC(C)c1cnn2c(Nc3ccc(S(=O)(=O)N(C)C)cc3)cc(NC3CCCC(N)C3)nc12` (stereo not drawn) [Example 113], the IC50 stood at 2.05 µM in assay [1], 3.12 µM in assay [2] and 2.2 µM in assay [3].
The like results for `CC(C)c1cnn2c(Nc3ccc(S(=O)(=O)N(C)C)cc3)cc(O[C@H]3CC[C@H](N)CC3)nc12` [Example 114] were, in that order, 0.017 µM, 125 µM and 3.45 µM.
The matching figures for `CCNC(=O)c1cc(Nc2ccc(S(=O)(=O)N(C)C)cc2)n2ncc(C(C)C)c2n1` [Example 115]: 7.89 µM, over 200 µM and over 200 µM.
The matching figures for `CC(C)c1cnn2c(Nc3ccc(S(=O)(=O)N(C)C)cc3)cc(C(=O)O)nc12` [Example 117]: 23.3 µM, over 200 µM and over 200 µM.
`CC(C)c1cnn2c(Nc3ccc(S(=O)(=O)N(C)C)cc3)cc(C(=O)NCCN)nc12` [Example 118]: the IC50 is 6.76 µM in assay [1], over 200 µM in assay [2] and 36.8 µM in assay [3].
The matching figures for `CC(C)c1cnn2c(Nc3ccc(S(=O)(=O)N(C)C)cc3)cc(N(C)c3ccncc3)nc12` [Example 119]: 22.7 µM, over 200 µM and over 200 µM.
The matching figures for `CC(C)c1cnn2c(Nc3ccc(S(=O)(=O)N(C)C)cc3)cc(C(=O)N3CCC(O)CC3)nc12` [Example 120]: 0.594 µM, over 200 µM and over 200 µM.
As for `CC(C)c1cnn2c(Nc3ccc(S(=O)(=O)N(C)C)cc3)cc(C(=O)NCCN3CCOCC3)nc12` [Example 121], the IC50 was 9.3 µM in assay [1], over 200 µM in assay [2] and over 200 µM in assay [3].
As for `CC(C)c1cnn2c(Nc3ccc(S(=O)(=O)N(C)C)cc3)cc(C(=O)NCCN(C)C)nc12` [Example 122], the half-inhibitory concentration (IC50) was 3.17 µM in assay [1], over 200 µM in assay [2] and over 200 µM in assay [3].
Consider `CC(C)c1cnn2c(Nc3ccc(S(=O)(=O)N(C)C)cc3)cc(NCCCN3CCN(C)CC3)nc12` [Example 124], for which the IC50 in assay [1] was 22.1 µM; in assay [2] it was over 200 µM; in assay [3], over 200 µM.
`CCCN(CCC)[C@H]1CC[C@H](Nc2cc(Nc3ccc(S(=O)(=O)N(C)C)cc3)n3ncc(C(C)C)c3n2)CC1` [Example 125]: the IC50 in assay [1] turned out to be 0.155 µM; in assay [2], 19.9 µM; in assay [3], 20.5 µM.
As for `CC(C)c1cnn2c(Nc3ccc(S(=O)(=O)N(C)C)cc3)cc(N[C@H]3CC[C@H](NS(C)(=O)=O)CC3)nc12` [Example 126], the values for the IC50 in assay [1], in assay [2] and in assay [3] were 0.073 µM, 34.4 µM and over 200 µM, respectively.
With `CN(C)S(=O)(=O)c1ccc(Nc2cc(Cl)nc3c(C4CC4)cnn23)cc1` [Example 127], the half-maximal inhibitory concentration (IC50) in assay [1] was 0.005 µM; in assay [2], 29.3 µM; in assay [3], over 200 µM.
The matching figures for `CN(C)S(=O)(=O)c1ccc(Nc2cc(N[C@H]3CC[C@H](N)CC3)nc3c(C4CC4)cnn23)cc1` [Example 128]: 0.022 µM, 0.178 µM and 1.03 µM.
`CN(C)CCNS(=O)(=O)c1ccc(Nc2cc(Cl)nc3c(Br)cnn23)cc1` [Example 135]: the IC50 is 0.081 µM in assay [1], over 50 µM in assay [2] and 43 µM in assay [3].
As for `CN(C)S(=O)(=O)c1ccc(Nc2cc(N[C@@H]3CCCC[C@@H]3N)nc3c(Br)cnn23)cc1` [Example 138], the IC50 in assay [1] was 0.565 µM; in assay [2], over 50 µM; in assay [3], 0.97 µM.
The matching figures for `CN(C)S(=O)(=O)c1ccc(Nc2cc(N[C@H]3CC[C@@H](N)CC3)nc3c(Br)cnn23)cc1` [Example 140]: 3.66 µM, 5.29 µM and 0.5 µM.
